Assay results published in ChEMBL document CHEMBL3045835, “Comparative study of conventional and microwave-assisted synthesis of some Schiff bases and their potential as antimicrobial agents” (2012).
In brackets after ≈: the same amount, converted by molar mass.

Experiments:
Assay type in all cases: functional
[1] = system: Pseudomonas fluorescens; assay: Antibacterial activity against Pseudomonas fluorescens MTCC 2421 at 200 ug/ml after 18 hr by cup-plate method; conditions: MTCC 2421, 18 h, read-out: DIZ
[2] = system: Escherichia coli; assay: Antibacterial activity against Escherichia coli MTCC 1573 at 1000 ug/ml after 18 hr by cup-plate method; conditions: MTCC 1573, 18 h, read-out: DIZ
[3] = system: Micrococcus luteus; assay: Antibacterial activity against Micrococcus luteus MTCC 1538 at 100 ug/ml after 18 hr by cup-plate method; conditions: MTCC 1538, 18 h, read-out: DIZ
[4] = system: Aspergillus niger; assay: Antifungal activity against Aspergillus niger MTCC 2546 after 24 hr by broth dilution method; conditions: MTCC 2546, 24 h
[5] = system: Aspergillus niger; assay: Antifungal activity against Aspergillus niger MTCC 2546 at 1500 ug/ml after 18 hr by cup-plate method; conditions: MTCC 2546, 18 h, read-out: DIZ
[6] = system: Penicillium chrysogenum; assay: Antifungal activity against Penicillium chrysogenum MTCC 161 at 1500 ug/ml after 18 hr by cup-plate method; conditions: MTCC 161, 18 h, read-out: DIZ
[7] = system: Aspergillus niger; assay: Antifungal activity against Aspergillus niger MTCC 2546 at 200 ug/ml after 18 hr by cup-plate method; conditions: MTCC 2546, 18 h, read-out: DIZ
[8] = system: Penicillium chrysogenum; assay: Antifungal activity against Penicillium chrysogenum MTCC 161 at 200 ug/ml after 18 hr by cup-plate method; conditions: MTCC 161, 18 h, read-out: DIZ
[9] = system: Bacillus subtilis; assay: Antibacterial activity against Bacillus subtilis MTCC 441 at 200 ug/ml after 18 hr by cup plate method; conditions: MTCC 441, 18 h, read-out: DIZ
[10] = system: Staphylococcus aureus; assay: Antibacterial activity against Staphylococcus aureus MTCC 1430 at 200 ug/ml after 18 hr by cup-plate method; conditions: MTCC 1430, 18 h, read-out: DIZ
[11] = system: Micrococcus luteus; assay: Antibacterial activity against Micrococcus luteus MTCC 1538 at 500 ug/ml after 18 hr by cup-plate method; conditions: MTCC 1538, 18 h, read-out: DIZ
[12] = system: Bacillus subtilis; assay: Antibacterial activity against Bacillus subtilis MTCC 441 at 100 ug/ml after 18 hr by cup plate method; conditions: MTCC 441, 18 h, read-out: DIZ
[13] = system: Staphylococcus aureus; assay: Antibacterial activity against Staphylococcus aureus MTCC 1430 at 1000 ug/ml after 18 hr by cup-plate method; conditions: MTCC 1430, 18 h, read-out: DIZ
[14] = system: Micrococcus luteus; assay: Antibacterial activity against Micrococcus luteus MTCC 1538 at 1000 ug/ml after 18 hr by cup-plate method; conditions: MTCC 1538, 18 h, read-out: DIZ
[15] = system: Bacillus pumilus; assay: Antibacterial activity against Bacillus pumilus MTCC 1456 after 24 hr by broth dilution method; conditions: MTCC 1456, 24 h
[16] = system: Escherichia coli; assay: Antibacterial activity against Escherichia coli MTCC 1573 at 200 ug/ml after 18 hr by cup-plate method; conditions: MTCC 1573, 18 h, read-out: DIZ
[17] = system: Pseudomonas aeruginosa; assay: Antibacterial activity against Pseudomonas aeruginosa MTCC 424 at 1500 ug/ml after 18 hr by cup-plate method; conditions: MTCC 424, 18 h, read-out: DIZ
[18] = system: Bacillus subtilis; assay: Antibacterial activity against Bacillus subtilis MTCC 441 at 1500 ug/ml after 18 hr by cup plate method; conditions: MTCC 441, 18 h, read-out: DIZ
[19] = system: Penicillium chrysogenum; assay: Antifungal activity against Penicillium chrysogenum MTCC 161 after 24 hr by broth dilution method; conditions: MTCC 161, 24 h
[20] = system: Penicillium chrysogenum; assay: Antifungal activity against Penicillium chrysogenum MTCC 161 at 500 ug/ml after 18 hr by cup-plate method; conditions: MTCC 161, 18 h, read-out: DIZ
[21] = system: Bacillus subtilis; assay: Antibacterial activity against Bacillus subtilis MTCC 441 at 1000 ug/ml after 18 hr by cup plate method; conditions: MTCC 441, 18 h, read-out: DIZ
[22] = system: Escherichia coli; assay: Antibacterial activity against Escherichia coli MTCC 1573 at 1500 ug/ml after 18 hr by cup-plate method; conditions: MTCC 1573, 18 h, read-out: DIZ
[23] = system: Staphylococcus aureus; assay: Antibacterial activity against Staphylococcus aureus MTCC 1430 at 500 ug/ml after 18 hr by cup-plate method; conditions: MTCC 1430, 18 h, read-out: DIZ
[24] = system: Pseudomonas fluorescens; assay: Antibacterial activity against Pseudomonas fluorescens MTCC 2421 after 24 hr by broth dilution method; conditions: MTCC 2421, 24 h
[25] = system: Bacillus pumilus; assay: Antibacterial activity against Bacillus pumilus MTCC 1456 at 500 ug/ml after 18 hr by cup-plate method; conditions: MTCC 1456, 18 h, read-out: DIZ
[26] = system: Staphylococcus aureus; assay: Antibacterial activity against Staphylococcus aureus MTCC 1430 at 100 ug/ml after 18 hr by cup-plate method; conditions: MTCC 1430, 18 h, read-out: DIZ
[27] = system: Bacillus pumilus; assay: Antibacterial activity against Bacillus pumilus MTCC 1456 at 1000 ug/ml after 18 hr by cup-plate method; conditions: MTCC 1456, 18 h, read-out: DIZ
[28] = system: Micrococcus luteus; assay: Antibacterial activity against Micrococcus luteus MTCC 1538 at 1500 ug/ml after 18 hr by cup-plate method; conditions: MTCC 1538, 18 h, read-out: DIZ
[29] = system: Micrococcus luteus; assay: Antibacterial activity against Micrococcus luteus MTCC 1538 after 24 hr by broth dilution method; conditions: MTCC 1538, 24 h
[30] = system: Aspergillus niger; assay: Antifungal activity against Aspergillus niger MTCC 2546 at 100 ug/ml after 18 hr by cup-plate method; conditions: MTCC 2546, 18 h, read-out: DIZ
[31] = system: Pseudomonas aeruginosa; assay: Antibacterial activity against Pseudomonas aeruginosa MTCC 424 at 1000 ug/ml after 18 hr by cup-plate method; conditions: MTCC 424, 18 h, read-out: DIZ
[32] = system: Micrococcus luteus; assay: Antibacterial activity against Micrococcus luteus MTCC 1538 at 200 ug/ml after 18 hr by cup-plate method; conditions: MTCC 1538, 18 h, read-out: DIZ
[33] = system: Pseudomonas fluorescens; assay: Antibacterial activity against Pseudomonas fluorescens MTCC 2421 at 100 ug/ml after 18 hr by cup-plate method; conditions: MTCC 2421, 18 h, read-out: DIZ
[34] = system: Pseudomonas fluorescens; assay: Antibacterial activity against Pseudomonas fluorescens MTCC 2421 at 1000 ug/ml after 18 hr by cup-plate method; conditions: MTCC 2421, 18 h, read-out: DIZ
[35] = system: Penicillium chrysogenum; assay: Antifungal activity against Penicillium chrysogenum MTCC 161 at 1000 ug/ml after 18 hr by cup-plate method; conditions: MTCC 161, 18 h, read-out: DIZ
[36] = system: Bacillus subtilis; assay: Antibacterial activity against Bacillus subtilis MTCC 441 at 500 ug/ml after 18 hr by cup plate method; conditions: MTCC 441, 18 h, read-out: DIZ
[37] = system: Staphylococcus aureus; assay: Antibacterial activity against Staphylococcus aureus MTCC 1430 at 1500 ug/ml after 18 hr by cup-plate method; conditions: MTCC 1430, 18 h, read-out: DIZ
[38] = system: Aspergillus niger; assay: Antifungal activity against Aspergillus niger MTCC 2546 at 1000 ug/ml after 18 hr by cup-plate method; conditions: MTCC 2546, 18 h, read-out: DIZ
[39] = system: Bacillus pumilus; assay: Antibacterial activity against Bacillus pumilus MTCC 1456 at 100 ug/ml after 18 hr by cup-plate method; conditions: MTCC 1456, 18 h, read-out: DIZ
[40] = system: Pseudomonas aeruginosa; assay: Antibacterial activity against Pseudomonas aeruginosa MTCC 424 at 200 ug/ml after 18 hr by cup-plate method; conditions: MTCC 424, 18 h, read-out: DIZ
[41] = system: Bacillus pumilus; assay: Antibacterial activity against Bacillus pumilus MTCC 1456 at 1500 ug/ml after 18 hr by cup-plate method; conditions: MTCC 1456, 18 h, read-out: DIZ
[42] = system: Aspergillus niger; assay: Antifungal activity against Aspergillus niger MTCC 2546 at 500 ug/ml after 18 hr by cup-plate method; conditions: MTCC 2546, 18 h, read-out: DIZ
[43] = system: Bacillus subtilis; assay: Antibacterial activity against Bacillus subtilis MTCC 441 after 24 hr by broth dilution method; conditions: MTCC 441, 24 h
[44] = system: Staphylococcus aureus; assay: Antibacterial activity against Staphylococcus aureus MTCC 1430 after 24 hr by broth dilution method; conditions: MTCC 1430, 24 h
[45] = system: Pseudomonas fluorescens; assay: Antibacterial activity against Pseudomonas fluorescens MTCC 2421 at 1500 ug/ml after 18 hr by cup-plate method; conditions: MTCC 2421, 18 h, read-out: DIZ
[46] = system: Penicillium chrysogenum; assay: Antifungal activity against Penicillium chrysogenum MTCC 161 at 100 ug/ml after 18 hr by cup-plate method; conditions: MTCC 161, 18 h, read-out: DIZ
[47] = system: Bacillus pumilus; assay: Antibacterial activity against Bacillus pumilus MTCC 1456 at 200 ug/ml after 18 hr by cup-plate method; conditions: MTCC 1456, 18 h, read-out: DIZ
[48] = system: Escherichia coli; assay: Antibacterial activity against Escherichia coli MTCC 1573 at 100 ug/ml after 18 hr by cup-plate method; conditions: MTCC 1573, 18 h, read-out: DIZ
[49] = system: Pseudomonas aeruginosa; assay: Antibacterial activity against Pseudomonas aeruginosa MTCC 424 at 500 ug/ml after 18 hr by cup-plate method; conditions: MTCC 424, 18 h, read-out: DIZ
[50] = system: Pseudomonas aeruginosa; assay: Antibacterial activity against Pseudomonas aeruginosa MTCC 424 after 24 hr by broth dilution method; conditions: MTCC 424, 24 h
[51] = system: Escherichia coli; assay: Antibacterial activity against Escherichia coli MTCC 1573 after 24 hr by broth dilution method; conditions: MTCC 1573, 24 h
[52] = system: Pseudomonas aeruginosa; assay: Antibacterial activity against Pseudomonas aeruginosa MTCC 424 at 100 ug/ml after 18 hr by cup-plate method; conditions: MTCC 424, 18 h, read-out: DIZ
[53] = system: Pseudomonas fluorescens; assay: Antibacterial activity against Pseudomonas fluorescens MTCC 2421 at 500 ug/ml after 18 hr by cup-plate method; conditions: MTCC 2421, 18 h, read-out: DIZ
[54] = system: Escherichia coli; assay: Antibacterial activity against Escherichia coli MTCC 1573 at 500 ug/ml after 18 hr by cup-plate method; conditions: MTCC 1573, 18 h, read-out: DIZ

MIC [4]: 300 µg/mL (≈ 1680 µM)
MIC [15]: 200 µg/mL (≈ 1120 µM)
MIC [19]: 400 µg/mL (≈ 2240 µM)
MIC [24]: 300 µg/mL (≈ 1680 µM)
MIC [29]: 200 µg/mL (≈ 1120 µM)
MIC [43]: 300 µg/mL (≈ 1680 µM)
MIC [44]: 300 µg/mL (≈ 1680 µM)
MIC [50]: 200 µg/mL (≈ 1120 µM)
MIC [51]: 200 µg/mL (≈ 1120 µM)
Structure (SMILES): C(=N\c1nc[nH]n1)/c1cccs1
zone of inhibition at 200 µg/mL [1]: 13 mm
zone of inhibition at 1000 µg/mL [2]: 20 mm
zone of inhibition at 100 µg/mL [3]: 13 mm
zone of inhibition at 1500 µg/mL [5]: 19 mm
zone of inhibition at 1500 µg/mL [6]: 19 mm
zone of inhibition at 200 µg/mL [7]: 13 mm
zone of inhibition at 200 µg/mL [8]: 15 mm
zone of inhibition at 200 µg/mL [9]: 11 mm
zone of inhibition at 200 µg/mL [10]: 13 mm
zone of inhibition at 500 µg/mL [11]: 18 mm
zone of inhibition at 100 µg/mL [12]: 10 mm
zone of inhibition at 1000 µg/mL [13]: 18 mm
zone of inhibition at 1000 µg/mL [14]: 20 mm
zone of inhibition at 200 µg/mL [16]: 16 mm
zone of inhibition at 1500 µg/mL [17]: 20 mm
zone of inhibition at 1500 µg/mL [18]: 22 mm
zone of inhibition at 500 µg/mL [20]: 16 mm
zone of inhibition at 1000 µg/mL [21]: 16 mm
zone of inhibition at 1500 µg/mL [22]: 21 mm
zone of inhibition at 500 µg/mL [23]: 16 mm
zone of inhibition at 500 µg/mL [25]: 16 mm
zone of inhibition at 100 µg/mL [26]: 11 mm
zone of inhibition at 1000 µg/mL [27]: 17 mm
zone of inhibition at 1500 µg/mL [28]: 22 mm
zone of inhibition at 100 µg/mL [30]: 11 mm
zone of inhibition at 1000 µg/mL [31]: 18 mm
zone of inhibition at 200 µg/mL [32]: 16 mm
zone of inhibition at 100 µg/mL [33]: 11 mm
zone of inhibition at 1000 µg/mL [34]: 18 mm
zone of inhibition at 1000 µg/mL [35]: 18 mm
zone of inhibition at 500 µg/mL [36]: 14 mm
zone of inhibition at 1500 µg/mL [37]: 19 mm
zone of inhibition at 1000 µg/mL [38]: 16 mm
zone of inhibition at 100 µg/mL [39]: 13 mm
zone of inhibition at 200 µg/mL [40]: 13 mm
zone of inhibition at 1500 µg/mL [41]: 18 mm
zone of inhibition at 500 µg/mL [42]: 15 mm
zone of inhibition at 1500 µg/mL [45]: 21 mm
zone of inhibition at 100 µg/mL [46]: 13 mm
zone of inhibition at 200 µg/mL [47]: 15 mm
zone of inhibition at 100 µg/mL [48]: 14 mm
zone of inhibition at 500 µg/mL [49]: 15 mm
zone of inhibition at 100 µg/mL [52]: 12 mm
zone of inhibition at 500 µg/mL [53]: 15 mm
zone of inhibition at 500 µg/mL [54]: 18 mm
